Values of other authors in patent US20140199433A1, “POLYDIORGANOSILOXANE-ENCAPSULATED ACTIVE INGREDIENT, METHOD FOR THE PREPARATION THEREOF, AND CHEWING GUM COMPRISING SAME” (Intercontinental Great Brands LLC, priority 2011, published 2014).

Details: 20° C. and one atmosphere

O=C(O)CC(O)C(=O)O (stereo not shown) [malic acid]
water solubility: about 588 grams per liter
